Experimental data from US20240400591A1 (Jacobio Pharmaceuticals Co., Ltd., priority 2021, published 2024).
Read-outs that look alike come from different tables or passages of the source.

Experiments:
[1] = target: T1, His-p53 Y220C (94-294) protein (Homo sapiens, UniProt P04637, Y220C); test: In vitro DNA binding assay (HTRF); type: biochemical; details: % activation normalized to 2 μM Ref-1a high control
T1 construct: His-p53 Y220C (94-294) protein

NUGC4 (P53 WT) = test: Cell viability assay (CellTiter-Glo, 6 days), NUGC4; type: cell-based; details: cell viability, 6 days, CellTiter-Glo, read-out: NUGC4 (P53 WT) IC50
How it was run: (§1)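 Cells seeded overnight at 37 °C, then exposed to compounds in medium for 6 days. Viability read by CellTiter-Glo luminescence, normalized to DMSO cell wells (high) and medium-only wells (low); IC50 taken as concentration giving 50% viability from 4-parameter logistic fit.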

[2] = test system: NUGC-3_P53_Luc single clonal cell line (p53 Y220C); test: Reporter gene assay (p53 RE luciferase); type: cell-based; details: luciferase reporter, 6 hours, normalized to Ref-1a (10 μM) high control, read-out: p53(Y220C)_NUGC-3 EC50
How it was run: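 NUGC-3 cells stably carrying a p53 RE-driven luc2P reporter, washed free of phenol red, exposed to compound for 6 h at 37 °C; luminescence read. Activity normalised between DMSO (low) and Ref-1a 10 μM (high) controls; EC50 from 4-parameter logistic fit or Excel as concentration giving 50% activity.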

NUGC3 (P53 Y220C) = test: Cell viability assay (CellTiter-Glo, 6 days), NUGC3; type: cell-based; details: cell viability, 6 days, CellTiter-Glo, read-out: NUGC3 (P53 Y220C) IC50
How it was run: as §1

SMILES | EC50 [1] | IC50 (NUGC4 (P53 WT); Homo sapiens, NUGC-4, 144 h) | EC50 ([2]; Homo sapiens, NUGC-3, 6 h) | IC50 (NUGC3 (P53 Y220C); Homo sapiens, NUGC-3, 144 h) | EC50 ([2]; Homo sapiens, NUGC-3) | IC50 (NUGC4 (P53 WT)) | EC50 [2] | IC50 (NUGC3 (P53 Y220C))
COc1cc(P(C)(C)=O)ccc1NCC#Cc1sc2c(N[C@@H]3CCN(C)C[C@@H]3C)cccc2c1CC(F)(F)F [Example 126, (4-((3-(7-(((3S,4R)-1,3-dimethylpiperidin-4-yl)amino)-3-(2,2,2-trifluoroethyl)benzo[b]thiophen-2-yl)prop-2-yn-1-yl)amino)-3-methoxyphenyl)dimethylphosphine oxide] | 36 nM | 2740 nM | 80 nM | 630 nM |  |  |  | 
CN1CC[C@@H](Nc2cccc3c(CC(F)(F)F)c(C#CCNc4ccc(P(C)(C)=O)c5ncsc45)sc23)[C@@H](F)C1 [Example 220, (7-((3-(7-(((3S,4R)-3-fluoro-1-methylpiperidin-4-yl)amino)-3-(2,2,2-trifluoroethyl)benzo[b]thiophen-2-yl)prop-2-yn-1-yl)amino)benzo[d]thiazol-4-yl)dimethylphosphine oxide] | 41 nM | 8110 nM |  | 250 nM | 150 nM |  |  | 
[2H]C([2H])([2H])Oc1cc(P(C)(C)=O)ccc1NCC#Cc1sc2c(N[C@@H]3CCN(C4CCOCC4)C[C@@H]3F)cccc2c1CC(F)(F)F [Example 184, (4-((3-(7-(((3S,4R)-3-fluoro-1-(tetrahydro-2H-pyran-4-yl)piperidin-4-yl)amino)-3-(2,2,2-trifluoroethyl)benzo[b]thiophen-2-yl)prop-2-yn-1-yl)amino)-3-(methoxy-d3)phenyl)dimethylphosphine oxide] | 42 nM | 4460 nM |  | 440 nM | 100 nM |  |  | 
COc1cc(P(C)(C)=O)ccc1NCC#Cc1sc2c(N[C@@H]3CCN(C)C[C@@H]3F)cccc2c1CC(F)(F)F [Example 115, (4-((3-(7-(((3S,4R)-3-fluoro-1-methylpiperidin-4-yl)amino)-3-(2,2,2-trifluoroethyl)benzo[b]thiophen-2-yl)prop-2-yn-1-yl)amino)-3-methoxyphenyl)dimethylphosphine oxide] | 23 nM | 8580 nM | 30 nM | 240 nM |  |  |  | 
COc1cc(S(C)(=O)=O)ccc1NCC#Cc1cc2c(N[C@H]3CCN(C)C[C@H]3F)cccc2n1CC(F)(F)F [Ref-1b, N-((3R,4S)-3-fluoro-1-methylpiperidin-4-yl)-2-(3-((2-methoxy-4-(methylsulfonyl)phenyl)amino)prop-1-yn-1-yl)-1-(2,2,2-trifluoroethyl)-1H-indol-4-amine, reference compound] | 96 nM | 12500 nM |  | 1920 nM | 200 nM |  |  | 
CN1CC[C@@H](Nc2cccc3c(CC(F)(F)F)c(C#CCNc4cc(F)c(P(C)(C)=O)cc4F)sc23)[C@@H](F)C1 (racemic) [Example 91, (2,5-difluoro-4-((3-(7-(((Z)-3-fluoro-1-methylpiperidin-4-yl)amino)-3-(2,2,2-trifluoroethyl)benzo[b]thiophen-2-yl)prop-2-yn-1-yl)amino)phenyl)dimethylphosphine oxide] | 102 nM | 9410 nM |  | 1800 nM | 260 nM |  |  | 
COCC(O)CNC(=O)c1ccc(NCC#Cc2sc3c(NC4CCN(C)CC4F)cccc3c2CC(F)(F)F)c(OC)c1 (stereo not drawn) [Example 59, 4-((3-(7-(((Z)-3-fluoro-1-methylpiperidin-4-yl)amino)-3-(2,2,2-trifluoroethyl)benzo[b]thiophen-2-yl)prop-2-yn-1-yl)amino)-N-(2-hydroxy-3-methoxypropyl)-3-methoxybenzamide] | 73 nM |  |  |  |  | 9820 nM | 150 nM | 1440 nM
CN1CC[C@@H](Nc2cccc3c(CC(F)(F)F)c(C#CCNc4ccc(P(C)(C)=O)c5c4OCCO5)sc23)[C@@H](F)C1 [Example 193, (8-((3-(7-(((3S,4R)-3-fluoro-1-methylpiperidin-4-yl)amino)-3-(2,2,2-trifluoroethyl)benzo[b]thiophen-2-yl)prop-2-yn-1-yl)amino)-2,3-dihydrobenzo[b][1,4]dioxin-5-yl)dimethylphosphine oxide] | 113 nM | 18600 nM |  | 1220 nM | 130 nM |  |  | 
COc1cc(P(C)(C)=O)ccc1NCC#Cc1sc2c(NC3CC(C)N(C)C(C)C3)cccc2c1CC(F)(F)F (stereo not drawn) [Example 143, (3-methoxy-4-((3-(3-(2,2,2-trifluoroethyl)-7-((1,2,6-trimethylpiperidin-4-yl)amino)benzo[b]thiophen-2-yl)prop-2-yn-1-yl)amino)phenyl)dimethylphosphine oxide] | 106 nM | 6940 nM |  | 1940 nM | 450 nM |  |  | 
COCC(O)CN1CC[C@@H](Nc2cccc3c(CC(F)(F)F)c(C#CCNc4ccc(S(C)(=O)=O)cc4OC)sc23)[C@@H](F)C1 (mixture of isomers) [Example 6, 1-((Z)-3-fluoro-4-((2-(3-((2-methoxy-4-(methylsulfonyl)phenyl)amino)prop-1-yn-1-yl)-3-(2,2,2-trifluoroethyl)benzo[b]thiophen-7-yl)amino)piperidin-1-yl)-3-methoxypropan-2-ol] | 130 nM | 6830 nM |  | 1190 nM | 360 nM |  |  | 

More lines, main results first:

EC50 [1] | SMILES | IC50 (NUGC4 (P53 WT); Homo sapiens, NUGC-4, 144 h) | EC50 ([2]; Homo sapiens, NUGC-3, 6 h) | IC50 (NUGC3 (P53 Y220C); Homo sapiens, NUGC-3, 144 h) | EC50 ([2]; Homo sapiens, NUGC-3) | IC50 (NUGC4 (P53 WT)) | EC50 [2] | IC50 (NUGC3 (P53 Y220C))
91 nM | COc1cc(P(C)(C)=O)ccc1NCC#Cc1sc2c(N[C@@H]3CCN(C4CCC4)C[C@@H]3F)cccc2c1CC(F)(F)F (racemic) [Example 103, (4-((3-(7-(((Z)-1-cyclobutyl-3-fluoropiperidin-4-yl)amino)-3-(2,2,2-trifluoroethyl)benzo[b]thiophen-2-yl)prop-2-yn-1-yl)amino)-3-methoxyphenyl)dimethylphosphine oxide] | 2650 nM |  | 1280 nM | 210 nM |  |  | 
48 nM | CN1CC[C@@H](Nc2cccc3c(CC(F)(F)F)c(C#CCOc4ccc(P(C)(C)=O)cc4C(N)=O)sc23)[C@@H](F)C1 [Example 165, 5-(dimethylphosphoryl)-2-((3-(7-(((3S,4R)-3-fluoro-1-methylpiperidin-4-yl)amino)-3-(2,2,2-trifluoroethyl)benzo[b]thiophen-2-yl)prop-2-yn-1-yl)oxy)benzamide] | > 50000 nM |  | 20500 nM | 4220 nM |  |  | 
44 nM | CN1CCC(Nc2cccc3c(CC(F)(F)F)c(C#CCNc4ccc(P(C)(C)=O)cc4OC(F)F)sc23)C(F)C1 (stereo not drawn) [Example 64, (3-(difluoromethoxy)-4-((3-(7-(((Z)-3-fluoro-1-methylpiperidin-4-yl)amino)-3-(2,2,2-trifluoroethyl)benzo[b]thiophen-2-yl)prop-2-yn-1-yl)amino)phenyl)dimethylphosphine oxide] |  |  |  |  | 13600 nM | 150 nM | 980 nM
47 nM | COc1cc(P(C)(C)=O)ncc1NCC#Cc1sc2c(N[C@@H]3CCN(C)C[C@@H]3F)cccc2c1CC(F)(F)F [Example 92, (5-((3-(7-(((3S,4R)-3-fluoro-1-methylpiperidin-4-yl)amino)-3-(2,2,2-trifluoroethyl)benzo[b]thiophen-2-yl)prop-2-yn-1-yl)amino)-4-methoxypyridin-2-yl)dimethylphosphine oxide] | 13400 nM |  | 990 nM | 180 nM |  |  | 
56 nM | CN1CCC(Nc2cccc3c(CC(F)(F)F)c(C#CCNc4ccc(P(C)(C)=O)cc4OCF)sc23)C(F)C1 (stereo not drawn) [Example 10, (4-((3-(7-(((Z)-3-fluoro-1-methylpiperidin-4-yl)amino)-3-(2,2,2-trifluoroethyl)benzo[b]thiophen-2-yl)prop-2-yn-1-yl)amino)-3-(fluoromethoxy)phenyl)dimethylphosphine oxide] |  |  |  |  | 21000 nM | 230 nM | 1680 nM
